In PMC9427925, “The measurement of binding affinities by NMR chemical shift perturbation” (Journal of Biomolecular Nmr, 2022):

Molecular target: T1, HisJ (Escherichia coli, UniProt P0AEU0)
T1 construct: HisJ (241 residues)
Assay: […] HSQC/TROSY NMR chemical shift perturbation titration, global fit of all 1H and […] shifts
Format: binding

T1 sequence (P0AEU0 23-260): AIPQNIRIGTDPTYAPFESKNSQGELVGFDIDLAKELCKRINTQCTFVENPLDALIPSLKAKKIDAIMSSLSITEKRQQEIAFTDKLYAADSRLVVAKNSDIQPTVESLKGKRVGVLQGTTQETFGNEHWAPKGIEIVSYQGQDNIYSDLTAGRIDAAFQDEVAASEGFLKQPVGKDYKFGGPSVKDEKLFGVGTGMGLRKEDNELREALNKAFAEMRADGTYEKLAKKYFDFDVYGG

Work on `NCCCC[C@H](N)C(=O)O` [lysine] yielded a Kd of 55.3 ± 0.4 µM.
